Tests used:
[1] = tested on: CHO; assay: Agonist activity at human GHSR expressed in CHO cells at maximum concentration incubated for 60 min by FLIPR assay relative to control; type: cell-based
[2] = Agonist activity at human GHSR expressed in CHO cells incubated for 60 min by FLIPR assay; type: cell-based; details: 1 h
[3] = molecular target: Growth hormone secretagogue receptor type 1 (Rattus norvegicus, UniProt O08725); assay: Agonist activity at rat GHSR expressed in CHO cells incubated for 60 min by FLIPR assay; type: functional, cell-based
[4] = tested on: CHO; assay: Agonist activity at dog GHSR expressed in CHO cells at maximum concentration incubated for 60 min by FLIPR assay relative to control; type: cell-based; details: Canis lupus familiaris, filed as agonist
[5] = Agonist activity at monkey GHSR expressed in CHO cells incubated for 60 min by FLIPR assay; type: cell-based; details: Macaca mulatta, 1 h
[6] = tested on: CHO; assay: Agonist activity at monkey GHSR expressed in CHO cells at maximum concentration incubated for 60 min by FLIPR assay relative to control; type: cell-based; details: Macaca mulatta, filed as agonist
[7] = molecular target: Growth hormone secretagogue receptor type 1 (Rattus norvegicus) (UniProt O08725); assay: Agonist activity at rat GHSR expressed in CHO cells at maximum concentration incubated for 60 min by FLIPR assay relative to control; type: functional, cell-based; details: filed as agonist
[8] = Agonist activity at dog GHSR expressed in CHO cells incubated for 60 min by FLIPR assay; type: cell-based; details: 1 h
[9] = Elimination half life in male Sprague-Dawley rat at 2 mg/kg, po administered as single dose measured after 4 hrs; type: ADME, organism-based; details: in vivo, read-out: beta t1/2 (converted)
[10] = Oral bioavailability in male Sprague-Dawley rat at 2 mg/kg administered as single dose measured after 4 hrs; type: ADME, organism-based; details: in vivo
[11] = AUC in male Sprague-Dawley rat at 2 mg/kg, po administered as single dose measured after 4 hrs; type: ADME, organism-based; details: in vivo
[12] = Volume of distribution in male Sprague-Dawley rat at 1 mg/kg, iv administered as single dose measured after 4 hrs; type: ADME, organism-based; details: in vivo
[13] = Cmax in male Sprague-Dawley rat at 2 mg/kg, po administered as single dose measured after 4 hrs; type: ADME, organism-based; details: in vivo
[14] = Elimination half life in male Sprague-Dawley rat at 1 mg/kg, iv administered as single dose measured after 4 hrs; type: ADME, organism-based; details: in vivo, read-out: beta t1/2 (converted)
[15] = Clearance in male Sprague-Dawley rat plasma at 1 mg/kg, iv administered as single dose measured after 4 hrs; type: ADME, organism-based
[16] = Tmax in male Sprague-Dawley rat at 2 mg/kg, po administered as single dose measured after 4 hrs; type: ADME, organism-based; details: in vivo

Growth hormone secretagogue receptor type 1, sequence (O08725 whole entry): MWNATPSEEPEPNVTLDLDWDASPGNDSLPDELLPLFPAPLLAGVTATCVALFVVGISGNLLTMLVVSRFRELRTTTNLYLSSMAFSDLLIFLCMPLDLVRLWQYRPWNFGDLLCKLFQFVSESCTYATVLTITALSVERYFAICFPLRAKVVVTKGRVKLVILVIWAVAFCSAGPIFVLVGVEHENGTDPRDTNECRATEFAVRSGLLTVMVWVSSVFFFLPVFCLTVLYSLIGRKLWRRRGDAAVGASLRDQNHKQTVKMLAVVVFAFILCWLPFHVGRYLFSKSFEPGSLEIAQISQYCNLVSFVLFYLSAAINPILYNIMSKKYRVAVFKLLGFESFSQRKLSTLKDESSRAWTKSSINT
Growth hormone secretagogue receptor type 1 (Rattus norvegicus), sequence (O08725 whole entry): as above

EC50 [2]	EC50 [3]	EC50 [5]	Activity [7]	EC50 [8]	Structure (SMILES)	Activity ([1]; filed as agonist)	Activity [4]	Activity [6]	further results
> 1000 nM	–	–	–	–	CC(C)(N)C(=O)N[C@H](COCc1ccccc1)C(=O)N1CCC2=NN(C(F)F)C(=O)[C@]2(Cc2ccccc2)C1	–	–	–	Activity [1]: 11%
53.3 nM	–	–	–	–	CC(C)(N)C(=O)N[C@H](COCc1ccccc1)C(=O)N1CC(C)(C)C2=NNC(=O)[C@]2(Cc2ccccc2)C1	–	–	–	Activity [1]: 25.4%
10.4 nM	–	–	–	–	CN1N=C2CC3CCC(N3C(=O)[C@@H](COCc3ccccc3)NC(=O)C(C)(C)N)[C@@]2(Cc2ccccc2)C1=O (stereo partly drawn)	104%	–	–	–
2.63 nM	–	–	–	–	CC(C)(N)C(=O)N[C@H](COCc1ccccc1)C(=O)N1CCC2=NN(C3CCCCC3)C(=O)[C@]2(Cc2ccccc2)C1	137%	–	–	–
0.89 nM	0.009 nM	0.034 nM	97.1%	0.043 nM	CC(C)(N)C(=O)N[C@H](COCc1ccccc1)C(=O)N1CCC2=NN(CC3CC3)C(=O)[C@]2(Cc2ccccc2)C1	134%	120%	104%	–
> 1000 nM	39.3 nM	102 nM	106%	143 nM	CN1N=C2CCN(C(=O)[C@@H](COCc3ccccc3)NC(=O)C3CCNCC3)C[C@@]2(Cc2ccccc2)C1=O	–	91.6%	94.9%	Activity [1]: 30.5%
29.8 nM	–	–	–	–	CN1N=C2C3(CC3)CN(C(=O)[C@@H](COCc3ccccc3)NC(=O)C(C)(C)N)C[C@@]2(Cc2ccccc2)C1=O	82.1%	–	–	–
> 1000 nM	–	–	–	–	Cn1nc2c(c1-c1ccccc1)CCN(C(=O)[C@@H](COCc1ccccc1)NC(=O)C(C)(C)N)C2	–	–	–	Activity [1]: 18.2%
0.58 nM	0.021 nM	0.051 nM	97.2%	0.105 nM	CC(C)(N)C(=O)N[C@H](COCc1ccccc1)C(=O)N1CCC2=NN(C3CCCC3)C(=O)[C@]2(Cc2ccccc2)C1	121%	117%	110%	–
72.4 nM	–	–	–	–	Cn1nc2c(c1-c1ccccc1)CN(C(=O)[C@@H](COCc1ccccc1)NC(=O)C(C)(C)N)CC2	72%	–	–	–
447 nM	–	–	–	–	CC(C)(N)C(=O)N[C@H](COCc1ccccc1)C(=O)N1C2CCC1[C@@]1(Cc3ccccc3)C(=O)NN=C1C2 (stereo partly drawn)	41.7%	–	–	–
0.58 nM	0.012 nM	0.062 nM	96%	0.077 nM	CC(C)(N)C(=O)N[C@H](COCc1ccccc1)C(=O)N1CCC2=NN(C(F)(F)F)C(=O)[C@]2(Cc2ccccc2)C1	106%	115%	103%	half-life [9]: 1.2 h; bioavailability [10]: 44.8%; AUC at 4 h [11]: 214 ng·h/mL; Vd [12]: 16.1 L/kg; Cmax [13]: 219 ng/mL; half-life [14]: 2.96 h; clearance [15]: 70.9 mL/min/kg; Tmax [16]: 0.33 h
735 nM	–	–	–	–	CC(C)(N)C(=O)N[C@H](COCc1ccccc1)C(=O)N1CCc2ccn(Cc3ccccc3)c2C1	47.6%	–	–	–
63.7 nM	–	–	–	–	CN1N=C2C(C)(C)CN(C(=O)[C@@H](COCc3ccccc3)NC(=O)C(C)(C)N)C[C@@]2(Cc2ccccc2)C1=O	82.2%	–	–	–
160 nM	–	–	–	–	CC1N(C(=O)[C@@H](COCc2ccccc2)NC(=O)C(C)(C)N)CCC2=NN(C)C(=O)[C@@]21Cc1ccccc1 (stereo partly drawn)	97.4%	–	–	–
1.34 nM	0.016 nM	0.044 nM	112%	0.071 nM	CC(C)(N)C(=O)N[C@H](COCc1ccccc1)C(=O)N1CCC2=NN(C(C)(C)C)C(=O)[C@]2(Cc2ccccc2)C1	143%	123%	99.3%	–
0.87 nM	–	–	–	–	CC(C)(N)C(=O)N[C@H](COCc1ccccc1)C(=O)N1CCC2=NOC(=O)[C@]2(Cc2ccccc2)C1	106%	–	–	Vd [12]: 22.8 L/kg; Cmax [13]: 54 ng/mL; half-life [14]: 1.44 h; clearance [15]: 169 mL/min/kg; Tmax [16]: 0.25 h
1.19 nM	0.014 nM	0.02 nM	104%	0.048 nM	CC(C)(N)C(=O)N[C@H](COCc1ccccc1)C(=O)N1CCC2=NN(C3CCC3)C(=O)[C@]2(Cc2ccccc2)C1	107%	125%	104%	half-life [9]: 1.82 h; bioavailability [10]: 3.3%; AUC at 4 h [11]: 21.1 ng·h/mL; Vd [12]: 3.5 L/kg; Cmax [13]: 8.4 ng/mL; half-life [14]: 0.8 h; clearance [15]: 50.5 mL/min/kg; Tmax [16]: 0.5 h
1.37 nM	0.017 nM	0.074 nM	111%	0.118 nM	CN1N=C2CCN(C(=O)[C@@H](COCc3ccccc3)NC(=O)C(C)(C)N)C[C@@]2(Cc2ccccc2)C1=O [CAPROMORELIN]	119%	155%	109%	–
14.7 nM	–	–	–	–	CC(C)(N)C(=O)N[C@H](COCc1ccccc1)C(=O)N1CCC2=NN(C3COC3)C(=O)[C@]2(Cc2ccccc2)C1	99.2%	–	–	–

Source: ChEMBL document CHEMBL6103654, “Design, Biological Characterization, and Discovery of Capromorelin Derivatives as Oral Growth Hormone Secretagogue Receptor Type 1a Agonist for the Treatment of Growth Hormone Deficiency” (J Med Chem, 2025)
